# Assay results published in patent US5439933A (priority 1993, dated 1995).
# Legend:
# [1] = system: KB human epidermoid carcinoma cells; assay: Cell proliferation assay (cell counts), KB; type: cell-based; settings: 72 h
# Procedure: (§1) Tolytoxin and the other new scytophycin compounds are potent anticancer and antifungal agents. The cytotoxicity of tolytoxin and other new scytophycin compounds was determined using a cell proliferation assay, which tested the effect of the compounds on increases in cell numbers.
# (§2) Cell lines were grown in plastic dishes (Falcon) in Eagle's basal medium supplemented with 5% newborn calf serum (KB), Fisher's medium supplemented with 10% horse serum (L1210), Dulbecco's modified Eagle's medium supplemented with 5% heat-inactivated fetal calf serum (LoVo), minimal essential medium supplemented with 2% heat-inactivated chicken serum (HEp-2), RPMI-1640 supplemented with 10% heat-inactivated fetal calf serum (T-47D, COLO-201) or 20% heat-inactivated fetal calf serum (HL-60, KATO-III), or McCoy's 5A supplemented with 10% heat-inactivated fetal calf serum (HBL-100). All cell culture media were supplemented with 50 μg/ml gentamycin sulfate. The cultures were incubated at 37° C. in a humidified atmosphere containing 5% carbon dioxide.
# (§3) Cultures were exposed to graded concentrations of tolytoxin and reincubated for 72 hours in the presence of tolytoxin. Three dishes were used for each treatment. Cell numbers were determined by hemacytometer counts. The IC50 for each cell line was determined by plotting the logarithm of the tolytoxin concentration versus growth (cell number as a percentage of the control) of the treated cells.
# (§4) The other new scytophycin compounds are also potent cytotoxins. For example, the IC50 of the scytophycins against KB human epidermoid carcinoma, LoVo human adenocarcinoma, and L1210 murine leukemia were determined using the cell proliferation assay described for tolytoxin.
# [2] = system: LoVo human adenocarcinoma cells; assay: Cell proliferation assay (cell counts), LoVo; type: cell-based; settings: 72 h
# Procedure: as §1, §2, §3, §4
# [3] = system: COLO-201 human colon adenocarcinoma cells; assay: Cell proliferation assay (cell counts), COLO-201; type: cell-based; settings: Table 5, 72 hours
# Procedure: as §1, §2
# as §3, with “Three dishes were used for each treatment.” left out
# Candida albicans A26 = assay: Antifungal agar dilution; type: cell-based; settings: Candida albicans, A26, 48 h
# Procedure: (§5) The new scytophycins are also useful as antifungal agents. Antimicrobial activity was determined by the agar dilution method. Tolytoxin was dissolved in 95% ethanol for addition to cooled, molten agar. Nystatin was solubilized in DMSO and diluted in distilled water. Appropriate solvent controls were also prepared. Fungal cultures were grown on Saboraud dextrose agar. Assay plates were incubated for 48 hours post-inoculation. Yeasts and filamentous fungi were incubated at 25° C.
# (§6) Activity was determined using the method described above for tolytoxin.
# [4] = system: Thielaviopsis paradoxa 1215; assay: Antifungal agar dilution; type: cell-based; settings: Thielaviopsis paradoxa, 1215, 48 h
# Procedure: as §5, §6
# Saccharomyces cerevisae = assay: Antifungal agar dilution; type: cell-based; settings: Saccharomyces, 48 h
# Procedure: as §5, §6
# Sclerotium rofsii 2133 = assay: Antifungal agar dilution; type: cell-based; settings: 48 h
# Procedure: as §5, §6
# [5] = system: Phytophthora nicotianae H729; assay: Antifungal agar dilution; type: cell-based; settings: Phytophthora nicotianae, 48 h
# Procedure: as §5, §6
# [6] = system: SKVLB (multi-drug resistant subline of SKOV3); assay: cells; type: cell-based, Human
# [7] = system: T47-D human ductal carcinoma cells; assay: Cell proliferation assay (cell counts), T47-D; type: cell-based; settings: T47D, Table 5, 72 hours
# Procedure: as §1, §2
# as §3, with “Three dishes were used for each treatment.” left out
# [8] = system: Murine leukemia (L1210) cells; assay: Polynucleation / DNA content by flow cytometry; type: cell-based; settings: 10 nM
# Procedure: The following procedure employs new scytophycins to produce polynucleated mammalian cells. Murine leukemia (L1210) cells at a density of 1×10^5 cells/mL were treated with tolytoxin for periods ranging from 4 to 24 hours. Tolytoxin or the appropriate vehicle as a control was added in a volume of not more than 4.2 μL per 10 mL of cell suspension. The cell suspension was incubated at 37° C. in a humidified atmosphere of 95% air, 5% carbon dioxide. At the conclusion of the incubation, the cultures were chilled on ice and centrifuged at 200×g (gravity) for 10 minutes. The pelleted cells were fixed in 70% ethanol: 30% water for 1 hour. Aliquots of the fixed cell suspensions were washed twice with 0.01M phosphate buffered saline, pH 7.2-7.4. The cells were resuspended at approximately 1×10^6 /mL in modified Krishan's reagent (Krishan, 1975) containing 0.005% propidium iodide, ribonuclease A at 50 units/mL, 0.1% sodium citrate, and 0.3% Nonidet P-40. Following a 30 minute incubation at 4° C. the cell suspensions were passed 4 times through a 26-gauge needle before analysis on a Coulter Epics C flow cytometer, equipped with an Innova 90 argon laser tuned at 488 nm and set at 200 milliwatts. The fluorescence of 10,000 cells was used to generate the DNA histograms.
# [9] = system: L1210 murine leukemia cells; assay: Cell proliferation assay (cell counts), L1210; type: cell-based; settings: Mus musculus, L1210, 72 h
# Procedure: as §1, §2, §3, §4
# [10] = system: Human ovarian carcinoma cells (SKOV3); assay: cells; type: cell-based; settings: SK-OV-3, 48 h, read-out: IC50 SKOV3
# Procedure: Human ovarian carcinoma cells (SKOV3) and a subline made multi-drug resistant by slowly increasing vinblastine in the culture medium over the course of many passages (SKVLB) were grown in Earle's basal medium (BME) containing 10% fetal calf serum. The SKVLB cells were maintained in the presence of 1 µg/mL vinblastine. The multi-drug resistant cell line is resistant to adriamycin, vinblastine, actinomycin D, and colchicine.
# Cell proliferation was estimated by measurement of protein content of the cultured cells, as described by Skehan et al. (1990). Cells were plated into 24-well plates at approximately 10% confluency in BME and were allowed to attach and recover for at least 24 hours. The cells were then treated with the scytophycins or appropriate control for 48 hours. After the incubation, the medium was removed from each well and cells fixed by addition of 10% (w/v) trichloroacetic acid (TCA) (4° C.). The cells were incubated at 4° C. for one hour and then washed five times with water to remove TCA. The TCA-fixed cells were then stained for 30 minutes with 0.4% (w/v) sulforhodamine B prepared in 1% acetic acid. Following the staining, the cell layers were washed four times with 1% acetic acid. The cell layer was dissolved in 10 mM unbuffered tris-hydroxymethylaminomethane base. Absorbance of the solution was determined at 564 nm. Antiproliferative activity is manifested as decreased production of cellular protein.
# [11] = system: HBL-100 human breast cells; assay: Cell proliferation assay (cell counts), HBL-100; type: cell-based; settings: Table 5, 72 hours
# Procedure: as §1, §2
# as §3, with “Three dishes were used for each treatment.” left out
# [12] = Toxicity in mice, intraperitoneal; settings: mouse, in vivo, ip, Swiss Webster mice
# Procedure: In view of the cytotoxic effects observed with the new scytophycins, an experiment was performed to determine the toxicity level in an animal model. Various doses of tolytoxin were administered to Swiss Webster mice by the intraperitoneal route.
# [13] = system: HEp-2 human epidermoid carcinoma cells; assay: Cell proliferation assay (cell counts), HEp-2; type: cell-based; settings: Table 5, 72 hours
# Procedure: as §1, §2
# as §3, with “Three dishes were used for each treatment.” left out
smiles,measurement,setting,value
"COC1CC2C=CCC(CC(OC)C3(CO3)C(OC)CC(OC)C(C)C(C(C)C(O)C(C)CCC(=O)C(C)C(OC)C(C)/C=C/N(C)C=O)OC(=O)/C=C/C(C)=C/C1O)O2 (stereo not shown) [Tolytoxin, 6-hydroxy-7-O-methylscytophycin B]",IC50,[1],5.3 nM
same,IC50,[2],8.4 nM
same,IC50,[3],0.52 nM
same,MIC,Candida albicans A26,8 nM
same,MIC,[4],1 nM
same,MIC,Saccharomyces cerevisae,4 nM
same,MIC,Sclerotium rofsii 2133,1 nM
same,MIC,[5],4 nM
same,IC50,"[6]; Homo sapiens, SKVLB, 48 h, read-out: IC50 SKVLB",25 nM
same,Fold-Resistance,"[6]; Table 7, SKVLB vs SKOV3, 2880 min",1
same,IC50,[7],4.9 nM
same,multinucleated cells observed by microscopy,[8]; 4 to 24 hours,increasing numbers of multinucleated cells
same,proportion of cells in the G2 M phase,[8]; 4 to 24 hours,gradual increase
same,fraction of the cells with DNA contents greater than 4C,[8]; by 16 hours,approximately 1/3
same,IC50,[9],3.9 nM
same,IC50,[10],25 nM
same,IC50,[11],2.4 nM
same,LD50,[12],~1.5 mg/kg
same,IC50,[13],2.3 nM
